Data on 1 substance can be found in US10689352B2, “Solid state forms of trisodium valsartan: sacubitril” (Teva Pharmaceuticals International GMBH, priority 2015, dated 2020).

The conditions of series [1]: characterized according to Carr RL, Chem Eng 1965. Here is the method:
Whole amount material was put in graduated cylinder. A graduated cylinder with the sample was attached to Erweka SVM tapped density tester and tapped with 1250 strikes. Volume of the powder is measured. Bulk density is measured as ratio between mass of sample (ms) and unsettled apparent volume (V0) of sample in graduated cylinder. Tap Density is measured as ratio between mass of sample (ms) and final tapped volume of sample (Vf). Compressibility index and Hausner ratio were calculated according to obtained results of bulk and tapped density.

Series [2] in a line: Circularity (morphology) by image analysis, Morphologi G3. To be noted: agglomerates, sieved through 300 μm, volume basis; e.g. as prepared according to Example 19. It is filed as physicochemical. From the text:
As used herein, circularity refers to the ratio of the perimeter of a circle with the same area as the particle divided by the perimeter of the actual particle image. Circularity is preferably determined by measurement of the particles following sieving through a sieve having a pore size of 300 μm. The particles are preferably measured following analysis of photographs of the particles at an appropriate magnification (e.g. 2.5 to 5.0 times magnification). More particularly, the sample is analyzed using Morphologi G3 instrumentation. The collected data can be processed using image analysis. Circularity is a ratio of the perimeter of a circle with the same area as the particle divided by the perimeter of the actual particle image.
Sample was sieved through a sieve with pore size 300 μm. The sieved material was dispersed on the glass surface at 0.5 bar and then images were taken at 2.5-5.0× magnification using Morphologi G3 (Malvern). Collected data was processed using image analysis. Circularity is a ratio of the perimeter of a circle with the same area as the particle divided by the perimeter of the actual particle image.

The nature of series [3]: Storage stability (chemical and polymorphic). It is filed as physicochemical. From the text:
A crystalline form according to Paragraph 2, which is characterized by an X-ray powder diffraction pattern having peaks at 5.8, 7.3, 12.9, 15.9, 16.5 and 18.6 degrees two theta±0.2 degrees two theta and also having any one, any two, any three or more additional peaks selected from: 4.3, 9.4, 10.0, 10.9 and 14.7 two theta±0.2 degrees two theta. • 4. A crystalline form according to Paragraph 2, which is characterized by the X-ray powder diffraction pattern having peaks at 7.3, 16.5, 9.4, 10.9 and 14.7 two theta±0.2 degrees two theta and also having any one, any two, any three or more additional peaks selected from: 4.3, 5.8, 10.0, 12.9, 15.9 and 18.6 two theta±0.2 degrees two theta and optionally further characterized by an FTIP spectrum as depicted in FIG. 6. • 5. A crystalline form according to Paragraph 1 or Paragraph 2, which is characterized by the X-ray powder diffraction pattern having peaks at 4.3, 5.8, 7.3, 9.4, 10.0, 10.9, 12.9, 14.7, 15.9, 16.5, and 18.6 two theta±0.2 degrees two theta±0.2 degrees two theta. • 6. A crystalline form according to Paragraph 5, which is further characterized by X-ray powder diffraction d-spacings at: 20.341, 15.261, 12.068, 9.397, 8.826, 8.092, 6.863, 6.024, 5.583, 5.353 and 4.773 Å±0.1 Å. • 7. A crystalline form according to any of Paragraphs 1, 2, 3 or 4, further characterized by an X-ray powder diffraction pattern having one, two, three, four five, or more than 5 additional peaks selected from: 4.3, 5.0, 5.5, 5.8, 7.3, 8.5, 8.9, 9.4, 10.0, 10.9, 11.6, 12.9, 13.7, 13.9, 14.7, 14.8, 15.1, 15.3, 15.9, 16.5, 17.3, 17.6, 18.6, 19.1, 19.5, 20.3, 21.2, 21.9 and 23.1 degrees two theta±0.2 degrees two theta. • 8. A crystalline form according to any of Paragraphs 1, 2, 3, 4, 5, 6 or 7, which is characterized by an X-ray powder diffraction pattern having peaks at: 4.3, 5.0, 5.5, 5.8, 7.3, 8.5, 8.9, 9.4, 10.0, 10.9, 11.6, 12.9, 13.7, 13.9, 14.7, 14.8, 15.1, 15.3, 15.9, 16.5, 17.3, 17.6, 18.6, 19.1, 19.5, 20.3, 21.2, 21.9 and 23.1 degrees two theta±0.2 degrees two theta. • 9. A crystalline form according to Paragraph 8, which is further characterized by the absence of any peak (defined as relative intensity I/Io of less than 1%) between any of two neighboring peaks. • 10. A crystalline form according to any of Paragraphs 1, 2, 3, 4, 5, 6, 7, 8 or 9, further characterized by an X-ray powder diffraction pattern as depicted in FIG. 1 or FIG. 14 and/or a solid state ^13C NMR as depicted in FIG. 5. • 11. A crystalline form according to any of Paragraphs 1, 2, 3, 4, 5, 6, 7, 8, 9 or 10, further characterized by a DSC as depicted in FIG. 2. • 12. A crystalline form according to any of Paragraphs 2-11 further characterized by a solid state ^13C NMR spectrum having peaks at 176.8, 161.9, 141.1, 139.5, 138.6, 137.2, 129.3, 128.7, 126.3, 124.9, 64.2, 60.6, 47.5, 46.1, 40.1, 39.0, 38.1, 34.3, 32.7, 29.8, 28.2, 22.4, 20.2, 17.8, 16.5, 13.7, 11.7 ppm±0.2 ppm. • 13. […] A crystalline form according to any of Paragraphs 1, 2, 3, 4, 5, 6, 7, 8, 9, 10, 11, 12, 13, 14 or 15, which is a hydrate, preferably wherein the crystalline form contains from 5.2 to 5.7 wt % water. • 17. A crystalline form according to any of Paragraphs 1, 2, 3, 4, 5, 6, 7, 8, 9, 10, 11, 12, 13, 14, 15 or 16, comprising agglomerates having spherical morphology, preferably wherein: at least 50%, at least 60%, at least 70%, at least 80% or at least 90% of the agglomerates have spherical morphology, preferably wherein the circularity of at least 50% (preferably: at least 60%, at least 70%, at least 80% or at least 90%) of the particles on a volume basis is: greater than or equal to about 0.85, about 0.86 to 1, about 0.88 to about 0.98, about 0.90 to about 0.96, about 0.92 to about 0.96. • 18. […] A process according to any of Paragraphs 18 or 19, wherein the solution in step (i) is prepared by heating, preferably to a temperature of about 80° C. to about 150° C., about 90° C. to about 130° C. • 21. […]

On to “trisodium valsartan:sacubitril [Form II]”, for which the flow properties result in series [1] is recorded as “good-excellent”. Also, the “circularity (v0.5)” value in series [2] was “greater than 0.85”. The “chemical and polymorphic stability” value is “chemically and polymorphically stable” in series [3] (protected from moisture, stored at 25° C./60% RH); “chemically and polymorphically stable” in series [3] (protected from moisture, stored at 40° C./75% RH); “chemically and polymorphically stable” in series [3] (protected from moisture, stored at 50° C.); “chemically and polymorphically stable” in series [3] (protected from moisture, stored at 50° C./80% RH); “chemically and polymorphically stable” in series [3] (stored for 8 weeks at 25° C./60% RH); “chemically and polymorphically stable” in series [3] (stored for 8 weeks at 50° C.).
